Test results as given in patent publication US4708871A, “Antigenically active amino acid sequences” (priority 1983, dated 1987).
Entries after “also recorded” stand apart in the source; their conditions may differ. No end group written: not given here.

Experiments:
Assay type in all cases: binding, rabbit
[1] = system: anti-intact virus particle, type O1 antisera
[2] = system: anti-VP1, type O1 antiserum
[3] = system: anti-virus-subunit, type O1 antiserum
[4] = system: anti-intact virus particle, type C1 antiserum

| Substance | Change of activity, absorbed compared to non-absorbed serum [1] | Reactive antibody in anti-intact virus serum after absorption with purified virus (ELISA) [1] | Reactive antibody in whole anti-intact virus sera (ELISA) [1] | Activity with another anti-VP1 serum (ELISA) [2] | Reactive antibody in anti-VP1 sera (ELISA) [2] | Reactive antibody in anti-subunit sera (ELISA) [3] | Reaction with antiserum to type C1 (ELISA) [4] |
| --- | --- | --- | --- | --- | --- | --- | --- |
| GDLQVL [GDLQVL] | loss of activity | absent | present; also recorded: reacted | showed nothing | only weakly present | not observed | did not react at all |
| DLQVLA [compound 147] | loss of activity | absent | present; also recorded: reacted | showed nothing | only weakly present | not observed | did not react at all |
